Assay results taken from patent US10093631B2, “Bifunctional compounds and use for reducing uric acid levels” (Acquist LLC, priority 2014, dated 2018).
Where two headings read alike, the source gives them in different places.

Key:
xanthine oxidase = xanthine oxidase (Homo sapiens (Human), UniProt P47989); experiment: Fluorescence-based xanthine oxidase inhibition assay; type: biochemical
URAT1 (SLC22A12) = URAT1 (SLC22A12) (Homo sapiens (Human), UniProt Q96S37); experiment: URAT1 (SLC22A12) cellular uptake assay, 3H-orotate transport in stably transfected URAT-1/CHO cells; type: cell-based
[1] = triplicate, 10 concentrations, read-out: Xanthine Oxidase IC50
[2] = URAT-1/CHO cells, 3H-orotate uptake, 7 concentrations 0.01 to 150 μM, read-out: URAT1 IC50

Chain of URAT1 (SLC22A12) (Q96S37 whole entry): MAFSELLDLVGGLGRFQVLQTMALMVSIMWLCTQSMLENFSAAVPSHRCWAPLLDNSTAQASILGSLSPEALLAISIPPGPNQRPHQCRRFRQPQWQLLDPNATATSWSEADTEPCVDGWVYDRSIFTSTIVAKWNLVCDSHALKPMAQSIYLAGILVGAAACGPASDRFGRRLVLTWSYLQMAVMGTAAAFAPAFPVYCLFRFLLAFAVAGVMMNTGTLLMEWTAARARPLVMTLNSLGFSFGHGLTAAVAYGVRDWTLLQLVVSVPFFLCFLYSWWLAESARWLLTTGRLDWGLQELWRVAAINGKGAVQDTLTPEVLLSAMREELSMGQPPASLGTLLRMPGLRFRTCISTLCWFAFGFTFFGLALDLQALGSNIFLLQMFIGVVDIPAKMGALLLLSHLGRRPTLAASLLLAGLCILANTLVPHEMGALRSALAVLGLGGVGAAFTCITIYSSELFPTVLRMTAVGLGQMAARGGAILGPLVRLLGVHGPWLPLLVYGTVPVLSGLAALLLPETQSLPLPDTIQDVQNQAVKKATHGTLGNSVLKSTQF
Chain of xanthine oxidase (P47989 whole entry, species assumed): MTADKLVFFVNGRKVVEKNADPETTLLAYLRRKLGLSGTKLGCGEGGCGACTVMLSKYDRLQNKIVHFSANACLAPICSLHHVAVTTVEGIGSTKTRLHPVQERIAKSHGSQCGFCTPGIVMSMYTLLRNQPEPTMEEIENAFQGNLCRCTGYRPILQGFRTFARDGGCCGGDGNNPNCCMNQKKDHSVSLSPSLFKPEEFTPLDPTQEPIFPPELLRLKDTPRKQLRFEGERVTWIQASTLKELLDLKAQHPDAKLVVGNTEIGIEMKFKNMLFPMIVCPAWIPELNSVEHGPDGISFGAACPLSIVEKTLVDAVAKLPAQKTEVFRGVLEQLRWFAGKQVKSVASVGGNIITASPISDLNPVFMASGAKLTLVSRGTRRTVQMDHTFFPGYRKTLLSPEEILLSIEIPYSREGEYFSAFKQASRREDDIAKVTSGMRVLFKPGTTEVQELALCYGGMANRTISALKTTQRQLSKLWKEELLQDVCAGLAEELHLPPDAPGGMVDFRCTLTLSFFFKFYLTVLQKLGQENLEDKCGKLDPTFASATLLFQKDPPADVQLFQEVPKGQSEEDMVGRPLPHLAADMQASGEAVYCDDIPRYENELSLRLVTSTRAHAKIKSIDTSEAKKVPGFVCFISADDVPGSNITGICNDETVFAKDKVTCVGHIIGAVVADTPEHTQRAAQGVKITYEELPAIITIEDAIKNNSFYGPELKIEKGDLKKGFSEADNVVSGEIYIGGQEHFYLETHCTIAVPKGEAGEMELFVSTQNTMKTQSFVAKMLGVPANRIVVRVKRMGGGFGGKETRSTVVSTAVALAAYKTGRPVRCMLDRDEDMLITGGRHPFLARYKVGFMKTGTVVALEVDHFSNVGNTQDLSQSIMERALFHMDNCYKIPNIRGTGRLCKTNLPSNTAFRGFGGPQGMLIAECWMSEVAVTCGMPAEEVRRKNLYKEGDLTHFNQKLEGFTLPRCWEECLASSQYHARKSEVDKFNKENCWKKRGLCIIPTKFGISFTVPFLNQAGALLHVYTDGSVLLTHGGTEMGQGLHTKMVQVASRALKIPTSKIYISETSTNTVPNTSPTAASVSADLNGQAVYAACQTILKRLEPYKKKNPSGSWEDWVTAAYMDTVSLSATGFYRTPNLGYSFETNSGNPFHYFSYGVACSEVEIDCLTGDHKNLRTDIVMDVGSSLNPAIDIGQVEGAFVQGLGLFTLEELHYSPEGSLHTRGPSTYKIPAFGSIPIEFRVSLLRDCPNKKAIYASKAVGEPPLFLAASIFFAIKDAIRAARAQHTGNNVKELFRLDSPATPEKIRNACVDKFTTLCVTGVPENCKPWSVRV

SMILES	IC50 (xanthine oxidase) [µM]	IC50 (URAT1 (SLC22A12)) [µM]	IC50 (xanthine oxidase; [1]) [µM]	IC50 (URAT1 (SLC22A12); [2]) [µM]
O=C(Nc1ccc(F)cc1)c1c(O)[nH]c(=S)[nH]c1=O [Formula (Ib), N-(4′-fluorophenyl)-1,2,3,4-tetrahydro-6-hydroxy-4-oxo-2-thioxo-5-pyrimidinecarboxamide]	< 10	< 10	–	–
O=C(Nc1ccncc1)c1c(O)[nH]c(=O)[nH]c1=O [Formula (Ik), 6-hydroxy-2,4-dioxo-N-(pyridin-4-yl)-1,2,3,4-tetrahydropyrimidine-5-carboxamide]	–	–	14.3	5.3
O=C(Nc1ccc(O)cc1F)c1c(O)[nH]c(=S)[nH]c1=O [Formula (Ic), N-(2′-fluoro-4′-hydroxyphenyl)-1,2,3,4-tetrahydro-6-hydroxy-4-oxo-2-thioxo-5-pyrimidinecarboxamide]	< 10	< 10	5.6	5.83
O=C(Nc1cc(F)c(O)c(F)c1)c1c(O)[nH]c(=O)[nH]c1=O [Formula (Ig), N-(3,5-difluoro-4-hydroxyphenyl)-6-hydroxy-2,4-dioxo-1,2,3,4-tetrahydropyrimidine-5-carboxamide]	< 10	< 10	1.92	3.55
O=C(Nc1ccc(O)cc1F)c1c(O)[nH]c(=O)[nH]c1=O [Formula (Ih), N-(2-fluoro-4-hydroxyphenyl)-6-hydroxy-2,4-dioxo-1,2,3,4-tetrahydropyrimidine-5-carboxamide]	–	–	5.97	1.79
